From patent publication US9314521B2, “Adjuvant compound” (ISA Pharmaceuticals B.V., priority 2011, dated 2016)
Non-standard residues stand in square brackets, D forms with d. No end group written: not given here. *: point of attachment. Cys((RS)-2,3-di(palmitoyloxy)-propyl) = Cys S-substituted with (RS)-2,3-di(palmitoyloxy)-propyl (dipalmitoyl-glyceryl); X1 = (RS)‑2,3‑di(palmitoyloxy)‑propyl, CCCCCCCCCCCCCCCC(=O)OCC(C*)OC(=O)CCCCCCCCCCCCCCC; 1‑tetradecyl‑urea = N-terminal tetradecyl-urea lipid group, CCCCCCCCCCCCCCNC(=O)*; Abu = CC[C@H](N)C(=O)O

Columns and labels:
DC = experiment: UPam variants: up-regulation of cell surface markers CD40, CD86 and MHC Class II (DC maturation); assay type: cell-based; conditions: 3 μM and 30 nM
Description: The UPam variants wherein Xn was varied were compared by measuring IL-12 production and the up-regulation of the cell surface markers CD40, CD86 and MHC Class II at 3 μM and 30 nM. Herein, Xn takes the place of serine in the SK4 (SEQ ID NO: 18) peptide part according to formula (2), containing different groups for R^5. Compounds X1 up to X8 containing these different groups R^5, which were studied are listed in the table below, wherein X1 is the UPam-14 as prepared in Example 1 and X2 is the UPam-14-Abu as prepared in Example 3. The potency of the compounds to upregulate CD40 followed the trend as observed in the DC maturation assay. […] In the up-regulation of the cell surface marker CD86 and MHC class II a corroborated trend was observed.

[1] = tested on: murine dendritic cell line; experiment: activation of murine dendritic cell line, IL-12 ELISA; assay type: cell-based; conditions: 24 hours, titrating concentrations
Description: The two compounds U-Pam-12 and U-Pam-14 as obtained in Example 1 were tested in comparison to unmodified Pam3CysSK4 (SEQ ID NO: 11) for their functional capacity to activate a human TLR2 expressing reporter cell line HEK-TLR2 (FIG. 3A) and a murine dendritic cell line (FIG. 3B).
In the test live TLR2-transfected HEK cells and dendritic cells (5×10^4 cells/well) were incubated with titrating concentrations of the respective Pam compounds in culture medium and incubated at 37° C. After 24 hours, supernatants were harvested and the presence of IL-8 or IL-12 cytokines respectively, was measured by specific sandwich ELISA assays.

murine DC cell line = experiment: DC maturation: cell surface marker expression in murine DC cell line by FACS (FIG. 4); assay type: cell-based; conditions: 30 nM, 48 hours, compared to Pam3CSK4
Description: The DCs were subsequently stained with antibodies directed against CD40, CD86 and MHC class II molecules. Mean fluorescence intensity was determined FACS analysis.

[2] = tested on: human monocyte-derived dendritic cells (moDC); experiment: activation of human monocyte-derived dendritic cells (moDC): IL12p40, IL12p70 ELISA and CD86 staining (FIG. 5); assay type: cell-based; conditions: 48 hours of incubation, compared to Pam3CSK4 or Pam-SLP
Description: On day 5 of culturing the CD 14±fraction of donor PBMC in growth medium with IL-4 and GM-CSF, these moDC were incubated with either wt Pam3CSK4 (SEQ ID NO: 11), U-Pam14, Pam3CSK4 (SEQ ID NO: 11)-conjugated or U-Pam14-conjugated synthetic long peptide (Pam-SLP or uPam14-SLP), or left unstimulated. After 48 hours of incubation, the supernatant of the moDC cultures was taken, which was subjected to IL12p40 (FIG. 5A) and IL12p70 (FIG. 5B) ELISA analysis. After 48 hours of incubation, the moDCs were stained with antibodies directed against CD86 (FIG. 5C).

cellular immune response = conditions: mice; Vaccine 22 (2004) 2494-2499; cited from earlier work

| Substance | up-regulation of CD40 compared to Pam3Cys-SK4 (DC) | stimulation (IL-12 cytokine production) compared to unmodified Pam3CysSK4 [1] | expression of cell surface molecules CD40, CD86 and MHC class II (mean fluorescence intensity) (murine DC cell line) | activation of human dendritic cells (IL12p40, IL12p70, CD86) [2] | additive for eliciting a cellular immune response (cellular immune response) |
| --- | --- | --- | --- | --- | --- |
| 1-tetradecyl-urea-Cys((RS)-2,3-di(palmitoyloxy)-propyl)-Abu-Lys-Lys-Lys-Lys-NH2 ({1‑tetradecyl‑urea-Cys((RS)-2,3-di(palmitoyloxy)-propyl)}-[Abu]KKKK-NH2) [Upam-14-Abu] | increased amount of up-regulation | – | – | – | – |
| 1-tetradecyl-urea-Cys((RS)-2,3-di(palmitoyloxy)-propyl)-Ser-Lys-Lys-Lys-Lys-NH2 ({1‑tetradecyl‑urea}-C(X1)SKKKK-NH2; SMILES CCCCCCCCCCCCCCCC(=O)OCC(CSC[C@H](NC(=O)NCCCCCCCCCCCCCC)C(=O)N[C@@H](CO)C(=O)N[C@@H](CCCCN)C(=O)N[C@@H](CCCCN)C(=O)N[C@@H](CCCCN)C(=O)N[C@@H](CCCCN)C(N)=O)OC(=O)CCCCCCCCCCCCCCC) [U-Pam-14] | increased amount of up-regulation | superior to wt Pam | superior to wt Pam | improves activation of human dendritic cells | – |
| Pam3Cys-SK4: established TLR2/TLR1 ligand, state of the art lipopeptide adjuvant (SEQ ID NO: 11) (CSKKKK; not fully specified (residue 1, N-terminus)) | – | – | – | – | most effective additive |
